{"source": "ChEMBL document CHEMBL3272007", "about": "“Antiarrhythmics. 2. Synthesis and antiarrhythmic activity of N-(piperidylalkyl)trifluoroethoxybenzamides” (1977)"}
{"tested_on": "Mus musculus", "assay": "Antiarrhythmic activity in po dosed Swiss-Webster mouse assessed as protection against chloroform-induced ventricular fibrillation administered in 4% acacia", "type": "functional", "conditions": "Heart", "units": {"ED50": "µmol/kg"}}
{"smiles": "O=C(NCC1CCNCC1)c1cc(OCC(F)(F)F)ccc1OCC(F)(F)F", "ED50": 149}
{"smiles": "CCCCN(CC1CCCCN1)C(=O)c1cc(OCC(F)(F)F)ccc1OCC(F)(F)F", "note": "(centres undefined)", "ED50": 32}
{"smiles": "CCN(CC1CCCCN1)C(=O)c1cc(OCC(F)(F)F)ccc1OCC(F)(F)F", "note": "(centres undefined)", "ED50": "< 2"}
{"smiles": "O=C(c1cc(OCC(F)(F)F)ccc1OCC(F)(F)F)N(CC1CCCCN1)C1CCCCC1", "note": "(centres undefined)", "ED50": 36}
{"smiles": "Cc1ccc(OCC(F)(F)F)c(C(=O)NCC2CCCCN2)c1", "note": "(centres undefined)", "ED50": "> 600"}
{"smiles": "CC(C)(C)N(CC1CCCCN1)C(=O)c1cc(OCC(F)(F)F)ccc1OCC(F)(F)F", "note": "(centres undefined)", "ED50": 17}
{"smiles": "CCN(CC1CCCN1C)C(=O)c1cc(OCC(F)(F)F)ccc1OCC(F)(F)F", "note": "(centres undefined)", "ED50": 29}
{"smiles": "CCN(CC)CC(=O)Nc1c(C)cccc1C", "note": "[LIDOCAINE]", "ED50": 495}
{"smiles": "O=CN1CCCCC1CNC(=O)c1cc(OCC(F)(F)F)ccc1OCC(F)(F)F", "note": "(centres undefined)", "ED50": "> 510"}
{"smiles": "O=C(c1cc(OCC(F)(F)F)ccc1OCC(F)(F)F)N1CCN2CCCCC2C1", "note": "(centres undefined)", "ED50": "> 510"}
{"smiles": "O=C(NCC1CCCCN1)c1c(OCC(F)(F)F)cccc1OCC(F)(F)F", "note": "(centres undefined)", "ED50": 271}
{"smiles": "O=C(NCC1CCCCN1)c1cc(OCC(F)(F)F)ccc1OCC(F)(F)F", "note": "(centres undefined) [FLECAINIDE ACETATE]", "ED50": 48}
{"smiles": "O=C(NC1CCCNC1)c1cc(OCC(F)(F)F)ccc1OCC(F)(F)F", "note": "(centres undefined)", "ED50": 57}
{"smiles": "CN(CC1CCCCN1)C(=O)c1cc(OCC(F)(F)F)ccc1OCC(F)(F)F", "note": "(centres undefined)", "ED50": 24}
{"smiles": "O=C(NCC1CCCCN1)c1ccc(OCC(F)(F)F)c(OCC(F)(F)F)c1", "note": "(centres undefined)", "ED50": 277}
{"smiles": "CCN(CC)CCNC(=O)c1ccc(N)cc1", "note": "[PROCAINAMIDE]", "ED50": 1030}
{"smiles": "C=C[C@H]1CN2CC[C@H]1C[C@@H]2[C@@H](O)c1ccnc2ccc(OC)cc12", "note": "[QUINIDINE]", "ED50": 217}
{"smiles": "O=C(NCC1CCCCN1)c1cccc(OCC(F)(F)F)c1OCC(F)(F)F", "note": "(centres undefined)", "ED50": 149}
{"smiles": "O=C(NC1CCNCC1)c1cc(OCC(F)(F)F)ccc1OCC(F)(F)F", "ED50": 144}
{"smiles": "O=C(NCC1CCCCN1)c1cc(OCC(F)(F)F)cc(OCC(F)(F)F)c1", "note": "(centres undefined)", "ED50": 388}
{"smiles": "CC1CCCC(CN(C)C(=O)c2cc(OCC(F)(F)F)ccc2OCC(F)(F)F)N1", "note": "(centres undefined)", "ED50": 9}
{"smiles": "O=C(NCC1CCCCN1)c1cc(Cl)ccc1OCC(F)(F)F", "note": "(centres undefined)", "ED50": 230}
{"smiles": "O=C(NCC1CCCCN1)c1cc(F)ccc1OCC(F)(F)F", "note": "(centres undefined)", "ED50": 270}
{"smiles": "O=C(NCC1CCCCN1)c1ccccc1OCC(F)(F)F", "note": "(centres undefined)", "ED50": 283}
{"smiles": "CC1CCCC(CNC(=O)c2cc(OCC(F)(F)F)ccc2OCC(F)(F)F)N1", "note": "(centres undefined)", "ED50": 22}
{"smiles": "O=C(NCC1CCCCN1)c1ccc(OCC(F)(F)F)cc1", "note": "(centres undefined)", "ED50": 190}
{"smiles": "O=C(NCC1CCCCN1)c1c(OCC(F)(F)F)cc(OCC(F)(F)F)cc1OCC(F)(F)F", "note": "(centres undefined)", "ED50": 95}
{"smiles": "CCN1CCCCC1CNC(=O)c1cc(OCC(F)(F)F)ccc1OCC(F)(F)F", "note": "(centres undefined)", "ED50": 102}
{"smiles": "CCN1CCCC1CNC(=O)c1cc(OCC(F)(F)F)ccc1OCC(F)(F)F", "note": "(centres undefined)", "ED50": 70}
{"smiles": "O=C(NCC1CCC2CCCCC2N1)c1cc(OCC(F)(F)F)ccc1OCC(F)(F)F", "note": "(centres undefined)", "ED50": 27}
{"smiles": "CN1CCCCC1CNC(=O)c1cc(OCC(F)(F)F)ccc1OCC(F)(F)F", "note": "(centres undefined)", "ED50": 44}
{"smiles": "CC(NC(=O)c1cc(OCC(F)(F)F)ccc1OCC(F)(F)F)C1CCCCN1", "note": "(centres undefined)", "ED50": 19}
{"smiles": "C[N+]1(C)CCCCC1CNC(=O)c1cc(OCC(F)(F)F)ccc1OCC(F)(F)F", "note": "(centres undefined)", "ED50": "> 395"}
{"smiles": "O=C(NCC1CCCNC1)c1cc(OCC(F)(F)F)ccc1OCC(F)(F)F", "note": "(centres undefined)", "ED50": 82}
{"smiles": "O=C(NCC1CCc2ccccc2N1)c1cc(OCC(F)(F)F)ccc1OCC(F)(F)F", "note": "(centres undefined)", "ED50": "> 450"}
{"smiles": "O=C(NCC1CCCCN1)c1cccc(OCC(F)(F)F)c1", "note": "(centres undefined)", "ED50": 76}
{"smiles": "O=C(NCC1NCCc2ccccc21)c1cc(OCC(F)(F)F)ccc1OCC(F)(F)F", "note": "(centres undefined)", "ED50": 380}
{"smiles": "CC[N+]1(C)CCCCC1CNC(=O)c1cc(OCC(F)(F)F)ccc1OCC(F)(F)F", "note": "(centres undefined)", "ED50": "> 380"}
{"smiles": "O=C(NCC1CCCCN1)c1ccc(OCC(F)(F)F)cc1OCC(F)(F)F", "note": "(centres undefined)", "ED50": 244}
